What all share (experiment): inhibition of tumour cell growth, NCI panel, 48 h
Assay [1] deals with SK-OV-3 ovarian.
The test system of assay [2] is SK-MEL-5 melanoma.
For assay [3], the system named is OVCAR-5 ovarian.
For assay [4], the system named is EKVX NSCLC.
Assay [5] has as its system U251 CNS.
Assay [6] has as its system KM12 colon.
Assay [7] relates to TK-10 renal.
Assay [8] has as its system SNB-75 CNS.
Assay [9] deals with HOP-92 NSCLC.
Assay [10] concerns 786-0 renal.

Values joined by “and” are separate entries in the source; they are usually repeats but may differ in a detail not shown here. Equal entries are not always repeated.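 Interpolation was linear, between the two tested concentrations surrounding the appropriate level; five concentrations were tested over 48 hours in 96-well plates. GI50: concentration for 50% inhibition of growth. The concentration for full growth arrest is given as TGI.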

In PubChem BioAssay (NCI) one finds GI50 and TGI data, which are given here for 8 compounds.

On to `CC(C)(C)c1cnc(CSc2cnc(NC(=O)C3CCNCC3)s2)o1`, for which the GI50 was 0.475 µM and 0.569 µM in [1]; 0.238 µM and 0.563 µM in assay [2]; 0.241 µM and 0.124 µM in assay [3]; 0.427 µM in [4]; 0.193 µM and 0.2 µM in assay [5]; 0.14 µM and 0.166 µM in [6]. Also, the GI50 in [7] is 0.62 µM and 0.794 µM; in assay [8], 0.15 µM and 0.124 µM; in [9] it was 0.114 µM and 0.17 µM; in assay [10], 0.47 µM and 0.698 µM. For the same compound, the TGI in assay [1] was above 100 µM; in assay [2], 0.644 µM and 2.18 µM; in assay [3], above 100 µM; in assay [4] it was above 10 µM; in assay [5] it was 27.6 µM and > 10 µM; in assay [6], 5.35 µM and > 10 µM. In addition, the TGI in assay [7] is 5.23 µM and > 10 µM; in assay [8], 0.4 µM and 0.324 µM; in assay [9], 0.544 µM and 0.657 µM; in assay [10] it was above 47.7 µM.
On to `Nc1cccc(C(=O)/C=C/c2ccccc2O)c1`, for which the TGI in assay [1], in assay [2], in assay [3], in assay [4], in assay [5] and in assay [6] was above 100 µM throughout. Further, the TGI in assay [7], in assay [8], in assay [9] and in assay [10] was above 100 µM each time.
With `COc1ccc(-c2nn(-c3cccc(Cl)c3)cc2-c2c(C#N)c(=O)n3[nH]c(-c4ccc(C)o4)nc3c2C#N)cc1`, the GI50 is 11.7 µM in assay [1]; 5.64 µM in assay [2]; 13.6 µM in assay [3]; 1.54 µM in [4]; 4.71 µM in [5]; 3.54 µM in assay [6]. Further, the GI50 in assay [7] was 12.4 µM; in [8], 1.56 µM; in [9] it was 0.463 µM; in assay [10] it was 9.42 µM. For the same compound, the TGI was above 50 µM in [1]; 12.4 µM in assay [2]; above 50 µM in assay [3]; 40.8 µM in assay [4]; above 50 µM in [5]; above 50 µM in assay [6]. In addition, the TGI in assay [7] was above 50 µM; in assay [8] it was above 50 µM; in assay [9], 3.44 µM; in [10], above 50 µM.
With `O=C1Cc2c([nH]c3ccccc23)-c2cc(Br)ccc2N1`, the TGI in assay [1], in assay [2], in assay [3], in assay [4], in [5] and in assay [6] was above 100 µM in each case. Besides, the TGI in assay [7], in [8], in [9] and in [10] was above 100 µM throughout.
On to `Nc1nc2c([nH]1)c1[nH]c3ccccc3c1c1[nH]c3ccccc3c21`, for which the GI50 was 16.2 µM in assay [1]; 14 µM in assay [2]; 16.1 µM in assay [3]; 14.1 µM in [4]; 3.99 µM in assay [5]; 6.91 µM in [6]. Also, the GI50 was 22.7 µM in assay [7], 11.9 µM in [8], 9.12 µM in [9] and 9.44 µM in assay [10]. The TGI in [1] was determined as 29.7 µM; in assay [2], 27 µM; in [3], 30 µM; in assay [4], 30.8 µM; in assay [5], 14.3 µM; in assay [6], 21.2 µM. Further, the TGI was 37.7 µM in assay [7], 25.1 µM in assay [8], 22.2 µM in [9] and 22.6 µM in [10].
Regarding `COc1cc2c(cc1OC)C(Sc1ccc(Cl)cc1)c1c(nc(N)c(C#N)c1N)O2` (stereo not given), the GI50 in assay [1] is 1.74 µM; in [2] it was 1.39 µM; in assay [3] it was 1.89 µM; in assay [4] it was 1.57 µM; in assay [5], 0.916 µM; in [6] it was 1.75 µM. Moreover, the GI50 in assay [7] is 1.43 µM; in assay [8], 1.14 µM; in [9], 1.51 µM; in [10] it was 1.37 µM. The TGI came out at 3.12 µM in [1]; 2.71 µM in assay [2]; 3.88 µM in [3]; 3.02 µM in assay [4]; 2.14 µM in [5]; 3.35 µM in assay [6]. For the same compound, the TGI in assay [7] came out at 2.75 µM; in [8], 2.42 µM; in [9] it was 3.19 µM; in assay [10] it was 2.7 µM.
Turning to `COc1cc(OC)c(OC)cc1/C=C\c1ccnc2ccccc12`, the TGI in assay [1] is 9.68 µM; in assay [2], 19.7 µM; in assay [3], above 100 µM; in [4] it was above 46.3 µM; in assay [5], 16.5 µM; in assay [6], above 67.5 µM. Further, the TGI in assay [7] was 31.4 µM; in [8], 2.51 µM; in assay [9], 45 µM; in assay [10], 61.6 µM.
On to `COc1ccc(-c2nc3sccn3c2/C=C/C(=O)c2cc(OC)c(OC)c(OC)c2)cc1`, for which the GI50 in [1] is 3.13 µM; in [2], 1.42 µM; in [3], 3.68 µM; in assay [4], 3.1 µM; in assay [5], 3.04 µM; in assay [6] it was 2.56 µM. Besides, the GI50 in assay [7] was 5 µM; in assay [8] it was 1.3 µM; in [9] it was 0.4 µM; in [10], 3.7 µM. For the same compound, the TGI is 24.6 µM in assay [1]; 2.98 µM in assay [2]; above 23.9 µM in [3]; above 100 µM in assay [4]; above 100 µM in [5]; 7.75 µM in [6]. The TGI in assay [7] was above 100 µM; in [8] it was above 20.7 µM; in assay [9], 4.59 µM; in [10] it was above 100 µM.
